According to the supplement of paper PMC10331698:
± gives the standard deviation of the averaged measurements.

Experiments:
Assay in all cases: level (log10 ratio to DMSO vehicle control); higher = higher biomarker level / cell amount than vehicle control
[1] = compound: OCCCC(F)(F)C(F)(F)C(F)(F)C(F)(F)C(F)(F)C(F)(F)C(F)(F)F [7:3 Fluorotelomer alcohol]; settings: 6700 nM; in DMSO
Description: (§1)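 BioMAP Diversity Plus panel of 12 human primary cell co-culture systems (3C, 4H, LPS, SAg, BT, BF4T, BE3C, CASM3C, HDF3CGF, KF3CT, MyoF, Mphg). Compounds were added 1 h before stimulation and left for 24 h (MyoF 48 h; BT 72 h for soluble read-outs or 6 d for IgG). Biomarkers were read by ELISA, cytotoxicity by SRB, PBMC viability and proliferation by Alamar Blue. Each well value was divided by the mean of 8 DMSO control wells on the same plate and log10 transformed; duplicate blinded samples were tested at 4 concentrations.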

[2] = compound: C=C(C)C(=O)OCCC(F)(F)C(F)(F)C(F)(F)C(F)(F)C(F)(C(F)(F)F)C(F)(F)F [(Perfluoro-5-methylhexyl)ethyl 2-methylprop-2-enoate]; settings: in DMSO
Description: as §1

[3] = compound: O=S(=O)(O)C(F)(F)C(F)(F)C(F)(F)C(F)(F)C(F)(F)C(F)(F)F [Perfluorohexanesulfonic acid]; settings: in DMSO
Description: as §1

[4] = compound: FC(F)C(F)(F)COCC1CO1 [((2,2,3,3-Tetrafluoropropoxy)methyl)oxirane]; settings: in DMSO
Description: as §1

[5] = compound: O=C(O)C(F)(F)C(F)(F)C(F)(F)C(F)(F)C(F)(F)C(F)(F)C(F)(F)C(F)F [9-H-Perfluorononanoic acid]; settings: in DMSO
Description: as §1

[6] = compound: C=CC(=O)OCC(F)(F)C(F)(F)C(F)(F)C(F)(F)C(F)(F)C(F)(F)C(F)(F)F [1H,1H-Perfluorooctyl acrylate]; settings: in DMSO
Description: as §1

[7] = compound: O=C(O)C(F)(F)C(F)(F)C(F)F [4H-Perfluorobutanoic acid]; settings: in DMSO
Description: as §1

Test System | level (log10) [1] | level (log10) ([2]; 6700 nM) | level (log10) ([2]; 20000 nM) | level (log10) ([3]; 6700 nM) | level (log10) ([3]; 20000 nM) | level (log10) ([3]; 60000 nM) | level (log10) ([4]; 6700 nM) | level (log10) ([4]; 20000 nM) | level (log10) ([4]; 60000 nM) | level (log10) ([5]; 6700 nM) | level (log10) ([5]; 20000 nM) | level (log10) ([5]; 60000 nM) | level (log10) ([6]; 6700 nM) | level (log10) ([6]; 20000 nM) | level (log10) ([6]; 60000 nM) | level (log10) ([7]; 6700 nM) | level (log10) ([7]; 20000 nM) | level (log10) ([7]; 60000 nM)
CASM3C:SRB | 0.006 ± 0.0028 | -0.0025 ± 0.005 | -0.0095 ± 0.0035 | -0.0045 ± 0.0021 | -0.0015 ± 0.012 | -0.0025 ± 0.016 | -0.0005 ± 0.015 | -0.003 ± 0.0042 | 0.0015 ± 0.00071 | 0.0045 ± 0.005 | 0.0035 ± 0.0035 | -0.001 ± 0.0057 | -0.007 ± 0.011 | 0.0005 ± 0.0078 | 0.0005 ± 0.00071 | -0.0015 ± 0.0078 | -0.002 ± 0.0071 | 0 ± 0.0099
CASM3C:CD106/VCAM-1 | -0.012 ± 0.016 | -0.017 ± 0.014 | -0.0175 ± 0.026 | -0.0145 ± 0.023 | -0.0175 ± 0.016 | -0.047 ± 0.024 | 0.0035 ± 0.022 | -0.012 ± 0.037 | 0.026 ± 0.033 | -0.0215 ± 0.012 | -0.019 ± 0.02 | -0.0315 ± 0.005 | 0.007 ± 0.016 | 0.014 ± 0.0014 | -0.0055 ± 0.0092 | 0.031 ± 0.057 | 0.041 ± 0.014 | 0.04 ± 0.0085
HDF3CGF:TIMP-2 | 0.0005 ± 0.013 | 0.0075 ± 0.026 | -0.0295 ± 0.019 | -0.0055 ± 0.015 | 0.0095 ± 0.0035 | -0.02 ± 0.0099 | -0.018 ± 0.0057 | -0.008 ± 0.0071 | -0.0275 ± 0.0078 | -0.07 ± 0.086 | -0.0755 ± 0.028 | -0.0595 ± 0.049 | 0.0145 ± 0.016 | -0.023 ± 0.011 | -0.041 ± 0.0028 | -0.0295 ± 0.066 | -0.01 ± 0.044 | -0.003 ± 0.059
HDF3CGF:CXCL9/MIG | -0.0225 ± 0.018 | 0.0135 ± 0.00071 | 0.0095 ± 0.011 | -0.0195 ± 0.0021 | -0.017 | 0.005 ± 0.042 | -0.001 ± 0.013 | 0.0115 ± 0.023 | -0.009 ± 0.028 | -0.0475 ± 0.022 | -0.052 ± 0.0071 | -0.0735 ± 0.016 | -0.0265 ± 0.0035 | -0.029 ± 0.03 | -0.0745 ± 0.0078 | -0.0015 ± 0.033 | -0.0035 ± 0.025 | -0.0125 ± 0.028
HDF3CGF:MMP-1 | -0.034 ± 0.021 | 0.002 ± 0.0085 | 0.008 ± 0.018 | 0.001 ± 0.025 | -0.0095 ± 0.03 | 0.01 ± 0.028 | 0.0085 ± 0.012 | 0.0175 ± 0.0064 | 0.0125 ± 0.023 | -0.047 ± 0.011 | -0.0915 ± 0.013 | -0.0745 ± 0.0078 | 0.013 ± 0.034 | 0.0425 ± 0.0078 | 0.0365 ± 0.019 | 0.0005 ± 0.0021 | -0.0025 ± 0.0035 | 0.0075 ± 0.021
MyoF:bFGF | -0.006 ± 0.0028 | -0.0015 ± 0.005 | 0.002 ± 0.0014 | 0.0035 ± 0.005 | 0.005 ± 0.0085 | 0.004 ± 0.014 | 0.012 ± 0.0057 | 0.0095 ± 0.0035 | 0.012 ± 0.011 | -0.0025 ± 0.021 | 0.0015 ± 0.012 | -0.0055 ± 0.018 | 0.003 | -0.0055 ± 0.0021 | 0.012 ± 0.024 | -0.023 ± 0.016 | -0.007 ± 0.02 | 0.0045 ± 0.012
3C:CCL2/MCP-1 | 0.0045 ± 0.011 | -0.0145 ± 0.025 | 0.006 ± 0.044 | 0.0055 ± 0.011 | 0.007 ± 0.017 | 0.017 ± 0.031 | 0.0045 ± 0.025 | 0.016 ± 0.028 | 0.0215 ± 0.042 | -0.001 ± 0.021 | 0.0125 ± 0.0092 | 0.0415 ± 0.005 | -0.0085 ± 0.00071 | -0.009 ± 0.023 | 0.017 ± 0.028 | -0.02 ± 0.061 | -0.006 ± 0.05 | 0.0215 ± 0.03
HDF3CGF:CXCL11/I-TAC | -0.0445 ± 0.023 | -0.013 ± 0.0014 | -0.0155 ± 0.013 | 0.01 | -0.004 ± 0.0099 | -0.004 ± 0.021 | 0.027 ± 0.013 | -0.0005 ± 0.0035 | 0.003 ± 0.0057 | -0.059 ± 0.0085 | -0.078 ± 0.0099 | -0.09 ± 0.021 | -0.017 ± 0.011 | -0.0275 ± 0.037 | -0.063 ± 0.011 | -0.0155 ± 0.071 | 0.003 ± 0.0071 | 0.0125 ± 0.0035
lMphg:sIL-10 | -0.0345 ± 0.032 | 0.0215 ± 0.029 | -0.0195 ± 0.12 | -0.0345 ± 0.061 | -0.073 ± 0.1 | -0.239 ± 0.025 | -0.087 ± 0.024 | -0.043 ± 0.027 | 0.0075 ± 0.018 | -0.0465 ± 0.00071 | -0.0225 ± 0.04 | -0.642 ± 0.04 | 0.018 ± 0.02 | -0.023 ± 0.05 | -0.0565 ± 0.042 | -0.0495 ± 0.096 | -0.0605 ± 0.054 | -0.019 ± 0.0014
3C:CD62E/E-Selectin | 0.002 ± 0.014 | -0.0095 ± 0.018 | -0.0175 ± 0.0021 | -0.0075 ± 0.011 | 0.012 ± 0.0042 | 0.0685 ± 0.018 | 0.0085 ± 0.0021 | 0.0105 ± 0.03 | 0.003 ± 0.047 | -0.009 ± 0.014 | -0.0145 ± 0.0092 | 0.006 ± 0.025 | -0.001 ± 0.0071 | -0.006 ± 0.0099 | 0.0035 ± 0.013 | -0.024 | -0.0235 ± 0.0092 | 0.017 ± 0.03
HDF3CGF:PAI-I | 0.0175 ± 0.029 | -0.037 ± 0.0028 | -0.0385 ± 0.019 | -0.0185 ± 0.019 | -0.0145 ± 0.023 | -0.004 ± 0.0057 | 0.0065 ± 0.016 | 0.0065 ± 0.0064 | 0.0035 ± 0.011 | -0.0135 ± 0.0092 | 0.004 ± 0.0028 | 0.0175 ± 0.023 | 0.032 ± 0.011 | 0.0515 ± 0.037 | 0.036 ± 0.069 | -0.021 ± 0.12 | 0.0115 ± 0.1 | 0.03 ± 0.069
lMphg:M-CSF | -0.0205 ± 0.037 | -0.005 ± 0.042 | 0.015 ± 0.042 | -0.0105 ± 0.033 | 0.0005 ± 0.011 | 0.0135 ± 0.022 | -0.0155 ± 0.013 | 0 ± 0.024 | -0.0265 ± 0.015 | -0.008 ± 0.028 | -0.0035 ± 0.018 | -0.0045 ± 0.013 | 0.015 ± 0.0028 | -0.0245 ± 0.023 | -0.027 ± 0.034 | -0.0115 ± 0.005 | -0.015 ± 0.0028 | -0.0175 ± 0.0064
CASM3C:HLA-DR | 0.008 ± 0.0071 | -0.0175 ± 0.019 | -0.01 ± 0.0085 | 0.0105 ± 0.015 | -0.001 ± 0.013 | -0.008 ± 0.028 | 0.001 ± 0.0085 | -0.001 ± 0.0099 | 0.0225 ± 0.043 | -0.01 ± 0.0071 | -0.0145 ± 0.0092 | 0.0025 ± 0.012 | 0.0075 ± 0.00071 | 0.002 ± 0.018 | 0.0045 ± 0.013 | -0.007 ± 0.0028 | 0.0435 ± 0.033 | 0.006 ± 0.024
KF3CT:IL-1alpha | -0.0135 ± 0.011 | -0.014 ± 0.0028 | -0.0225 ± 0.0035 | 0.0065 ± 0.054 | -0.014 ± 0.016 | -0.015 ± 0.017 | 0.006 ± 0.011 | -0.0085 ± 0.013 | 0.0055 ± 0.039 | 0.006 ± 0.0071 | -0.0195 ± 0.012 | -0.039 ± 0.035 | -0.0075 ± 0.022 | -0.001 ± 0.0071 | -0.007 ± 0.0028 | 0.001 ± 0.05 | -0.0055 ± 0.005 | 0.0075 ± 0.06
lMphg:CD69 | -0.0115 ± 0.011 | -0.064 ± 0.082 | -0.0825 ± 0.08 | -0.007 ± 0.027 | 0.007 ± 0.04 | -0.036 ± 0.018 | -0.048 ± 0.02 | -0.001 ± 0.0071 | -0.028 ± 0.033 | -0.0445 ± 0.088 | -0.038 ± 0.054 | -0.072 ± 0.0099 | -0.0255 ± 0.012 | -0.016 ± 0.033 | -0.0135 ± 0.013 | 0.0185 ± 0.032 | -0.0175 ± 0.0021 | 0.0095 ± 0.019
CASM3C:LDLR | 0.012 ± 0.0028 | -0.032 ± 0.03 | 0.018 ± 0.025 | -0.014 ± 0.0042 | -0.0055 ± 0.0035 | 0.0155 ± 0.039 | -0.0165 ± 0.021 | -0.02 ± 0.0042 | 0.007 ± 0.024 | -0.003 ± 0.018 | -0.005 ± 0.0042 | 0.009 ± 0.024 | 0.011 | 0.006 ± 0.0099 | 0.016 ± 0.016 | -0.0785 ± 0.037 | -0.039 ± 0.0042 | -0.0235 ± 0.026
